Laboratory results published in patent US6566086B1, “Diagnostic kit for detecting creatine levels” (FAL Diagnostics, priority 2000, dated 2003).

Experiments:
[1] = 1H NMR detection of the interaction of substance 42 with creatine; type: binding; conditions: CD3OD solution; creatine added to the test solution
Description: The ability of substance 42 to detect creatine was evaluated by ^1H NMR spectroscopy. […] (Bell, T. W. et al. 36th National Organic Symposium, U. of Wisconsin, Madison, Wis., Jun. 13, 1999-Jun. 17, 1999). [drawing 32] [drawing 33]

[2] = tested on: animal models of Huntington's disease; conditions: oral supplementation; cited from earlier work

Structure (SMILES)	ability to detect creatine (interaction with creatine by 1H NMR) [1]	protection from malonate lesions [2]
O=C(O)c1ccc2c(n1)-c1nc3nc4c(cc3cc1CC2)CCc1ccc(C(=O)O)nc1-4 [Substance 42]	interaction of creatine with substance 42 was detected	
N=C1NCCN1CC(=O)O [cyclocreatine, 1-carboxymethyl-2-iminoimidazolidine]		protect the animals from malonate lesions
